Patent US8933232B2, “1,3,4-oxadiazole and 1,3,4-thiadiazole beta-lactamase inhibitors” (priority 2012, dated 2015)
Counter-ions that a name gives are not always drawn.

Tested on: bacterial strains that express KPC β-lactamases
Experiment: Synergy MIC / standard BLI potentiation MIC assay against strains expressing KPC β-lactamases
Format: cell-based
Settings: in the presence of a β-lactam; comparator Avibactam
Procedure: The experimental protocol was performed according to Clinical and Laboratory Standards Institute (CLSI) guidelines with modifications as described below (CLSI guidelines can be derived from the CLSI document M07-A9 published in January 2012: “Methods for Dilution Antimicrobial Susceptibility Tests for Bacteria That Grow Aerobically; Approved Standard-Ninth Edition”).
To prepare for MIC testing, frozen glycerol stocks of clinical isolates (Klebsiella pneumoniae, Eschericia coli, Enterobacter spp, Citrobacter spp, or Pseudomonas aeruginosa) were used to streak for isolated colonies on rich, non-selective, tryptic soy agar containing 5% sheep's blood (TSAB). Frozen glycerol stocks of laboratory engineered, isogenic E. coli strains, which contain cloned β-lactamase expressing plasmids were used to streak for isolated colonies on rich, selective LB agar supplemented with 25 μg/mL tetracycline to maintain the plasmid. All strains were incubated at 37° C. for 18-24 hrs.
On the day of testing, primary cultures were started by scraping off 5-10 colonies from the TSAB plates containing clinical strains or the tetracycline supplemented LB plates containing engineered strains. The clinical strain material was suspended in ˜5 mL of cation adjusted Mueller Hinton Broth (CAMHB) in 14 mL culture tubes. The engineered strain material was suspended in CAMHB (supplemented with 25 μg/mL tetracycline) in 14 mL culture tubes. All strains were incubated at 37° C. with aeration (200 rpm) for ˜2 hrs until the optical density at 600 nm (OD600) was >0.1.
The two compound components of the assay were each diluted in CAMHB and added to the 96-well broth microdilution assay plates. 50 μL of the β-lactam was added to each well of the assay plate in 2-fold dilutions with final concentrations ranging from 128 to 0.13 μg/mL. 25 μL, of the BLI compound was added to all wells in the broth microdilution plates at a final concentration of 4 μg/mL. Inoculum cultures were prepared by standardizing the primary cultures to OD600=0.1 and then adding 20 μL of the adjusted primary culture per 1 mL CAMHB for clinical strains or CAMHB (supplemented with tetracycline at 100 μg/mL) for engineered strains, so that the final inoculum density was ˜10^5 colony forming units per milliliter. Diluted inoculum cultures were used to inoculate 25 μl, per well in 96-well broth microdilution assay plates. The final volume of each well was 100 μL and contained a β-lactam at different concentrations, a BLIcompound at 4 μg/mL concentration, the bacterial culture at an OD600 of approximately 0.001 and when necessary tetracycline at 25 μg/mL.
Plates were incubated for 18-20 hours at 37° C. with aeration (200 rpm). Following incubation, growth was confirmed visually placing plates over a viewing apparatus (stand with a mirror underneath) and then OD600 was measured using a SpectraMax 340PC384 plate reader (Molecular Devices, Sunnyvale, Calif.). Growth was defined as turbidity that could be detected with the naked eye or achieving minimum OD600 of 0.1. MIC values were defined as the lowest concentration producing no visible turbidity.
The synergy MIC (sMIC) assay determines the concentration of the BLI required to potentiate the activity of a fixed concentration of a β-lactam antibiotic against β-lactamase producing bacterial strains. The experimental protocol was performed according to Clinical and Laboratory Standards Institute (CLSI) guidelines with modifications as described below (CLSI guidelines can be derived from the CLSI document M07-A9 published in January 2012: “Methods for Dilution Antimicrobial Susceptibility Tests for Bacteria That Grow Aerobically; Approved Standard-Ninth Edition”). […]

SMILES | more active than Avibactam for at least one bacterial strain that expresses KPC β-lactamase and/or better spectrum of activity against KPC strains
O=C1N2C[C@@H](CC[C@H]2c2nnc(CN[C@@H]3CCNC3)o2)N1OS(=O)(=O)O [Compound 766, (2S,5R)-7-oxo-2-(5-(((R)-pyrrolidin-3-ylamino)methyl)-1,3,4-oxadiazol-2-yl)-1,6-diazabicyclo[3.2.1]octan-6-yl hydrogen sulfate] | more active than Avibactam
O=C1N2C[C@@H](CC[C@H]2c2nnc(CCC3CNC3)o2)N1OS(=O)(=O)O [Compound 742, (2S,5R)-2-(5-(2-(azetidin-3-yl)ethyl)-1,3,4-oxadiazol-2-yl)-7-oxo-1,6-diazabicyclo[3.2.1]octan-6-yl hydrogen sulfate] | more active than Avibactam
O=C1N2C[C@@H](CC[C@H]2c2nnco2)N1OS(=O)(=O)O [Compound 701, (2S,5R)-2-(1,3,4-oxadiazol-2-yl)-7-oxo-1,6-diazabicyclo[3.2.1]octan-6-yl hydrogen sulfate] | more active than Avibactam
NCCCCc1nnc([C@@H]2CC[C@@H]3CN2C(=O)N3OS(=O)(=O)O)o1 [Compound 735, (2S,5R)-2-(5-(4-aminobutyl)-1,3,4-oxadiazol-2-yl)-7-oxo-1,6-diazabicyclo[3.2.1]octan-6-yl hydrogen sulfate] | more active than Avibactam
N=C(N)N1CC(Cc2nnc([C@@H]3CC[C@@H]4CN3C(=O)N4OS(=O)(=O)O)o2)C1 [Compound 741, (2S,5R)-2-(5-((1-carbamimidoylazetidin-3-yl)methyl)-1,3,4-oxadiazol-2-yl)-7-oxo-1,6-diazabicyclo[3.2.1]octan-6-yl hydrogen sulfate] | more active than Avibactam
O=C1N2C[C@@H](CC[C@H]2c2nnc(CN3CCNCC3)o2)N1OS(=O)(=O)O [Compound 777, (2S,5R)-7-oxo-2-(5-(piperazin-1-ylmethyl)-1,3,4-oxadiazol-2-yl)-1,6-diazabicyclo[3.2.1]octan-6-yl hydrogen sulfate] | more active than Avibactam
N[C@@H]1CN[C@H](c2nnc([C@@H]3CC[C@@H]4CN3C(=O)N4OS(=O)(=O)O)o2)C1 [Compound 760, (2S,5R)-2-(5-((2S,4S)-4-aminopyrrolidin-2-yl)-1,3,4-oxadiazol-2-yl)-7-oxo-1,6-diazabicyclo[3.2.1]octan-6-yl hydrogen sulfate] | more active than Avibactam
NCc1nnc([C@@H]2CC[C@@H]3CN2C(=O)N3OS(=O)(=O)O)o1 [Compound 702, (2S,5R)-2-(5-(aminomethyl)-1,3,4-oxadiazol-2-yl)-7-oxo-1,6-diazabicyclo[3.2.1]octan-6-yl hydrogen sulfate] | more active than Avibactam
N=C(N)NCCc1nnc([C@@H]2CC[C@@H]3CN2C(=O)N3OS(=O)(=O)O)o1 [Compound 705, (2S,5R)-2-(5-(2-guanidinoethyl)-1,3,4-oxadiazol-2-yl)-7-oxo-1,6-diazabicyclo[3.2.1]octan-6-yl hydrogen sulfate] | more active than Avibactam
N=C(N)NCCc1nnc([C@@H]2CC[C@@H]3CN2C(=O)N3OS(=O)(=O)O)s1 [Compound 794, (2S,5R)-2-(5-(2-guanidinoethyl)-1,3,4-thiadiazol-2-yl)-7-oxo-1,6-diazabicyclo[3.2.1]octan-6-yl hydrogen sulfate] | more active than Avibactam
N=C(N)N[C@H]1C[C@@H](c2nnc([C@@H]3CC[C@@H]4CN3C(=O)N4OS(=O)(=O)O)s2)C1 [Compound 784, (2S,5R)-2-(5-((1s,3R)-3-guanidinocyclobutyl)-1,3,4-thiadiazol-2-yl)-7-oxo-1,6-diazabicyclo[3.2.1]octan-6-yl hydrogen sulfate] | more active than Avibactam
NCCc1nnc([C@@H]2CC[C@@H]3CN2C(=O)N3OS(=O)(=O)O)o1 [Compound 703, (2S,5R)-2-(5-(2-aminoethyl)-1,3,4-oxadiazol-2-yl)-7-oxo-1,6-diazabicyclo[3.2.1]octan-6-yl hydrogen sulfate] | more active than Avibactam
N=C(N)N[C@H]1C[C@@H](c2nnc([C@@H]3CC[C@@H]4CN3C(=O)N4OS(=O)(=O)O)o2)C1 [Compound 749, 2S,5R)-2-(5-((1s,3R)-3-guanidinocyclobutyl)-1,3,4-oxadiazol-2-yl)-7-oxo-1,6-diazabicyclo[3.2.1]octan-6-yl hydrogen sulfate] | more active than Avibactam
O=C1N2C[C@@H](CC[C@H]2c2nnc(CCN3CCNCC3)o2)N1OS(=O)(=O)O [Compound 776, (2S,5R)-7-oxo-2-(5-(2-(piperazin-1-yl)ethyl)-1,3,4-oxadiazol-2-yl)-1,6-diazabicyclo[3.2.1]octan-6-yl hydrogen sulfate] | more active than Avibactam
N[C@H]1C[C@H](CCc2nnc([C@@H]3CC[C@@H]4CN3C(=O)N4OS(=O)(=O)O)o2)C1 [Compound 753, (2S,5R)-2-(5-(2-((1r,3R)-3-aminocyclobutyl)ethyl)-1,3,4-oxadiazol-2-yl)-7-oxo-1,6-diazabicyclo[3.2.1]octan-6-yl hydrogen sulfate] | more active than Avibactam
CC(C)(N)Cc1nnc([C@@H]2CC[C@@H]3CN2C(=O)N3OS(=O)(=O)O)o1 [Compound 737, (2S,5R)-2-(5-(2-amino-2-methylpropyl)-1,3,4-oxadiazol-2-yl)-7-oxo-1,6-diazabicyclo[3.2.1]octan-6-yl hydrogen sulfate] | more active than Avibactam
O=C1N2C[C@@H](CC[C@H]2c2nnc(CCNCCO)o2)N1OS(=O)(=O)O [Compound 736, (2S,5R)-2-(5-(2-((2-hydroxyethyl)amino)ethyl)-1,3,4-oxadiazol-2-yl)-7-oxo-1,6-diazabicyclo[3.2.1]octan-6-yl hydrogen sulfate] | more active than Avibactam
N[C@H]1C[C@@H](CCc2nnc([C@@H]3CC[C@@H]4CN3C(=O)N4OS(=O)(=O)O)o2)C1 [Compound 754, (2S,5R)-2-(5-(2-((1s,3S)-3-aminocyclobutyl)ethyl)-1,3,4-oxadiazol-2-yl)-7-oxo-1,6-diazabicyclo[3.2.1]octan-6-yl hydrogen sulfate] | more active than Avibactam
NC1(Cc2nnc([C@@H]3CC[C@@H]4CN3C(=O)N4OS(=O)(=O)O)o2)CC1 [Compound 724, (2S,5R)-2-(5-((1-aminocyclopropyl)methyl)-1,3,4-oxadiazol-2-yl)-7-oxo-1,6-diazabicyclo[3.2.1]octan-6-yl hydrogen sulfate] | more active than Avibactam
O=C1N2C[C@@H](CC[C@H]2c2nnc([C@@H]3CCNC3)o2)N1OS(=O)(=O)O [Compound 759, (2S,5R)-7-oxo-2-(5-((R)-pyrrolidin-3-yl)-1,3,4-oxadiazol-2-yl)-1,6-diazabicyclo[3.2.1]octan-6-yl hydrogen sulfate] | more active than Avibactam
